The supplement of paper PMC10307832

How the values were obtained:
Test in all cases: relative viability (nuclei count vs DMSO), 5 days (fraction); higher = more cells survive
[1] = compound: CC1=C(N=C(N=C1N)[C@H](CC(=O)N)NC[C@@H](C(=O)N)N)C(=O)N[C@@H]([C@H](C2=CN=CN2)OC3C(C(C(C(O3)CO)O)O)OC4C(C(C(C(O4)CO)O)OC(=O)N)O)C(=O)N[C@H](C)[C@H]([C@H](C)C(=O)N[C@@H]([C@@H](C)O)C(=O)NCCC5=NC(=CS5)C6=NC(=CS6)C(=O)NCCC[S+](C)C)O [Bleomycin] + Nc1nc2[nH]cc(CCc3ccc(C(=O)N[C@@H](CCC(=O)O)C(=O)O)cc3)c2c(=O)[nH]1 [Pemetrexed] (partner 0.2 µM); conditions: main component drawn
Method in brief: (§1)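 Relative viability equals treated-well nuclei counts divided by vehicle-well nuclei counts. Counts came from 4× images of lung cancer cell lines grown in 1536-well plates for 5 days after pin-tool dosing on the day after seeding. Dosing used one drug alone or a fixed anchor-drug dose plus five library-drug doses (not always all listed) in √10 steps, and values are medians of duplicate plates.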

[2] = compound: COc1cc([C@@H]2c3cc4c(cc3[C@@H](O[C@@H]3O[C@@H]5CO[C@@H](C)O[C@H]5[C@H](O)[C@H]3O)[C@H]3COC(=O)[C@H]23)OCO4)cc(OC)c1O [Etoposide] + Nc1nc2[nH]cc(CCc3ccc(C(=O)N[C@@H](CCC(=O)O)C(=O)O)cc3)c2c(=O)[nH]1 [Pemetrexed] (partner 0.2 µM)
Method in brief: as §1

[3] = compound: COc1cc([C@@H]2c3cc4c(cc3[C@@H](O[C@@H]3O[C@@H]5CO[C@@H](C)O[C@H]5[C@H](O)[C@H]3O)[C@H]3COC(=O)[C@H]23)OCO4)cc(OC)c1O [Etoposide] + COc1cc2c(Oc3ccc(NC(=O)C4(C(=O)Nc5ccc(F)cc5)CC4)cc3F)ccnc2cc1OCCCN1CCOCC1 [Foretinib] (partner 0.25 µM)
Method in brief: as §1

[4] = compound: COc1cc([C@@H]2c3cc4c(cc3[C@@H](O[C@@H]3O[C@@H]5CO[C@@H](C)O[C@H]5[C@H](O)[C@H]3O)[C@H]3COC(=O)[C@H]23)OCO4)cc(OC)c1O [Etoposide] + CC(=O)Nc1cccc(-n2c(=O)n(C3CC3)c(=O)c3c(Nc4ccc(I)cc4F)n(C)c(=O)c(C)c32)c1 [Trametinib] (partner 0.02 µM)
Method in brief: as §1

Cell Line	relative viability ([1]; first compound 0.01 µM)	relative viability ([1]; first compound 0.03162 µM)	relative viability ([1]; first compound 0.1 µM)	relative viability ([1]; first compound 0.3162 µM)	relative viability ([1]; first compound 1 µM)	relative viability ([2]; first compound 0.01 µM)	relative viability ([2]; first compound 0.03162 µM)	relative viability ([2]; first compound 0.1 µM)	relative viability ([2]; first compound 0.3162 µM)	relative viability ([2]; first compound 1 µM)	relative viability ([3]; first compound 0.01 µM)	relative viability ([3]; first compound 0.03162 µM)	relative viability ([3]; first compound 0.1 µM)	relative viability ([3]; first compound 0.3162 µM)	relative viability ([3]; first compound 1 µM)	relative viability ([4]; first compound 0.01 µM)	relative viability ([4]; first compound 0.03162 µM)	relative viability ([4]; first compound 0.1 µM)	relative viability ([4]; first compound 0.3162 µM)	relative viability ([4]; first compound 1 µM)
HCC-78	0.895	0.969	0.88	0.832	0.826	0.901	0.954	0.84	0.916	0.906	0.476	0.532	0.438	0.404	0.252	0.585	0.759	0.648	0.403	0.299
LOU-NH91	0.423	0.38	0.368	0.315	0.271	0.403	0.414	0.469	0.359	0.346	0.919	0.949	0.745	0.795	0.406	0.731	0.817	0.659	0.758	0.552
NCI-H322M	0.635	0.606	0.723	0.573	0.575	0.604	0.603	0.625	0.587	0.524	0.813	1	0.831	0.864	0.483	0.531	0.564	0.469	0.457	0.47
HCC-827	0.252		0.25	0.235	0.207	0.262	0.266	0.127	0.236	0.192	0.996	1.01	0.915	0.284	0.177	0.497	0.525	0.315	0.23	0.187
SW 1573	0.755	0.691	0.572	0.44	0.225	0.877	0.785	0.397	0.259	0.148	0.873	0.931	0.475	0.537	0.278	0.609	0.548	0.436	0.219	0.14
NCI-H1975	0.267	0.252	0.219	0.175	0.166	0.285	0.303	0.31	0.268	0.223	0.914	0.938	0.895	0.91	0.286	0.303	0.425	0.284	0.268	0.236
NCI-H1651	0.629	0.501	0.433	0.366	0.285	0.707	0.728	0.466	0.382	0.127	0.781	0.659	0.784	0.351	0.251	0.774	0.783	0.558	0.362	0.165
NCI-H460	0.0698	0.0674	0.0717	0.0385	0.0443	0.0661	0.0549	0.061	0.0772	0.0604	0.871	0.907	0.809	0.142	0.0668	0.173	0.14	0.0869	0.0497	0.021
LCLC-103H	0.452	0.443	0.455	0.487	0.419	0.447	0.477	0.523	0.473	0.469	0.592	0.597	0.77	0.636	0.502	0.607	0.748	0.742	0.64	0.582
LCLC-97TM1	0.169	0.165	0.189	0.141	0.0948	0.176	0.196	0.168	0.18	0.118	0.87	0.988	0.732	0.341	0.173	0.22	0.218	0.174	0.126	0.115
NCI-H838	0.247	0.227	0.232	0.19	0.19	0.277	0.259	0.274	0.251	0.239	0.981	1.03	1.01	0.841	0.35	0.463	0.502	0.378	0.406	0.253
NCI-H1355	1	1.04	1.03	0.648	0.298	1.09	1.09	0.617	0.919	0.46	0.812	0.998	0.828	0.507	0.285	0.396	0.478	0.27	0.384	0.256
HOP-62	0.277	0.361	0.303	0.141	0.128	0.389	0.361	0.378	0.318	0.243	1.06	1.05	0.967	0.628	0.418	0.348	0.395	0.325	0.343	0.316
NCI-H2085	0.878	0.954	0.811	0.347	0.447	0.769	0.95	0.803	0.907	0.378	0.781	0.897	0.88	0.667	0.33	0.484	0.643	0.423	0.266	0.271
